According to patent US6608086B2, “Dihydropyridines and new uses thereof” (Synaptic Pharmaceutical Corporation, priority 1993, dated 2003):
pKi: −log10 of the molar value. Like-named read-outs stand apart in the source and are kept apart here.

Experiments:
[1] = molecular target: T1, α1B Human Adrenergic Receptor (Homo sapiens, UniProt P35368); assay: Radioligand binding, [3H]prazosin, cloned human α1B adrenergic receptor; details: cloned human receptor, LM(tk-) cell membranes, mean; for pKi: PKi alpha-1 1b; for Ki: read-out: PKi alpha-1 1b (converted)
T1 construct: The entire coding region of α1B (1563 bp); expressed in transfected cells
T1 sequence (P35368 1-520): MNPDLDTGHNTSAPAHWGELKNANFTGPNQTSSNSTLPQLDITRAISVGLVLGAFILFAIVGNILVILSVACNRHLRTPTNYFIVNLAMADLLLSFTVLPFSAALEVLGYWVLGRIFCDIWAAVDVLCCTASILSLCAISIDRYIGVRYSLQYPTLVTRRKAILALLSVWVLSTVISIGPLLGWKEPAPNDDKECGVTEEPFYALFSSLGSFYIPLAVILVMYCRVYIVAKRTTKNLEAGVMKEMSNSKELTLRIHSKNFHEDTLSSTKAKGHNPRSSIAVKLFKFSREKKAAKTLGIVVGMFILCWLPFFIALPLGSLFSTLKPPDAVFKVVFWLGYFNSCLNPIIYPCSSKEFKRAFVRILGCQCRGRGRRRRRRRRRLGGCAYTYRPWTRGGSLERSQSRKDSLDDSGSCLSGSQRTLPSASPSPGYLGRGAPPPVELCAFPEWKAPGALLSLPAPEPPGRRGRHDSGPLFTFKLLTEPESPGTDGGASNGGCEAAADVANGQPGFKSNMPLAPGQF
Outline: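 [3H]prazosin (0.5 nM) binding was run for 20 min at 37° C in pH 7.5 Tris/MgCl2/ascorbate buffer on membranes of LM(tk−) cells stably expressing the cloned receptor. Filtration through GF/B ended the reaction; 10 μM phentolamine gave nonspecific binding.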

[2] = molecular target: T2, α2B receptor (Homo sapiens, UniProt P18089); assay: Competition binding, [3H]rauwolscine, human α2B receptor; details: for pKi: PKi alpha-2 2b; for Ki: read-out: PKi alpha-2 2b (converted)
T2 construct: host or cells: LM(tk-) cells, line L-NGC-α2B
T2 sequence (P18089 1-450): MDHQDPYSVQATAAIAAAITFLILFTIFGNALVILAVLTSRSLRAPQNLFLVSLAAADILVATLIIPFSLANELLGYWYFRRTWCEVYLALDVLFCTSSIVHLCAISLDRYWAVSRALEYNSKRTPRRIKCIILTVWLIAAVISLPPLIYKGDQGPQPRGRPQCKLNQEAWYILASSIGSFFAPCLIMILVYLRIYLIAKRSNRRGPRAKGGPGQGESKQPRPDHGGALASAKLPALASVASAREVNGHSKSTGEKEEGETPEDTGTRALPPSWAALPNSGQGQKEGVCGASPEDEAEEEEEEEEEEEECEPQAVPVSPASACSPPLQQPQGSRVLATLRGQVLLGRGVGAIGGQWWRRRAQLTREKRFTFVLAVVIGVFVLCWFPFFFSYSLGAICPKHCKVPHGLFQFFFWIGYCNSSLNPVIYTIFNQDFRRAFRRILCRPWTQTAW
Outline: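 Cell lysates from stably transfected LM(tk−) lines are resuspended in 25 mM glycylglycine (pH 7.6 at room temperature), incubated to equilibrium with 0.5 nM [3H]rauwolscine plus competitor, then filtered through GF/B filters; 10 μM phentolamine defines nonspecific binding.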

[3] = molecular target: T3, α1A Human Adrenergic Receptor (Homo sapiens, UniProt P25100); assay: Radioligand binding, [3H]prazosin, cloned human α1A adrenergic receptor; details: for pKi: PKi alpha-1 1a; for Ki: read-out: PKi alpha-1 1a (converted)
T3 construct: The entire coding region of α1A (1719 bp); expressed in transfected cells
T3 sequence (P25100 1-572): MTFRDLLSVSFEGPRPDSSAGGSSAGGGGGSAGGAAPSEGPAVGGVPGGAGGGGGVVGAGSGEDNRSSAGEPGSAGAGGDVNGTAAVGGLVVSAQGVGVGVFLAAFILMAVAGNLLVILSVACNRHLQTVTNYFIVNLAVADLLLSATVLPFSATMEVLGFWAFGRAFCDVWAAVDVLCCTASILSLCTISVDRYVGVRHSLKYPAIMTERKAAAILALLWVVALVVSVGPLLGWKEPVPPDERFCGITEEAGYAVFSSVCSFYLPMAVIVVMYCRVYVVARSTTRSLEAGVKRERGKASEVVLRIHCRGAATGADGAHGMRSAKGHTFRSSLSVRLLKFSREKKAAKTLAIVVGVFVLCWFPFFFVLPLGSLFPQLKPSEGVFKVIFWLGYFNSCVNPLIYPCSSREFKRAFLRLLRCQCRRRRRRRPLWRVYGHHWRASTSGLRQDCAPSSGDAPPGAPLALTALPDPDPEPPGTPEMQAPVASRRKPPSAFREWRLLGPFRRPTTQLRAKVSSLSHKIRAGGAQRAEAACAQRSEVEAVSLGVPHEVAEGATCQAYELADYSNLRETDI
Outline: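 [3H]prazosin 0.5 nM, transfected LM(tk−) membranes, 37° C, 20 min. Buffer 50 mM Tris-HCl/1 mM MgCl2/0.1% ascorbate, pH 7.5. NSB: 10 μM phentolamine. Filtration harvest.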

[4] = [3H]rauwolscine, human receptor, LM(tk-) cell lysates, mean
[5] = [3H]prazosin, cloned human receptor, LM(tk-) cell membranes, mean

Compound	pKi [1]	pKi [2, 4]	pKi [3, 5]	Ki [1] [µM]	Ki [2, 4] [µM]	Ki [3, 5] [µM]	pKi [2]	pKi [3]
CCC1=C(C(=O)NC)C(c2ccc([N+](=O)[O-])cc2)C(C(=O)NCCCN2CCC(c3ccccc3)(c3ccccc3)CC2)=C(CCCCOC)N1 (stereo not drawn) [Example 173, 6-Ethyl-1,4-dihydro-2-(4-methoxybutyl)-5-(N-methyl)carboxamido-4-(4-nitrophenyl)-3-{N-[3-(4,4-diphenylpiperidin-1-yl)propyl]}carboxamidopyridine]	6.37	6.02	6.13	–	–	–	–	–
CCC1=C(C(=O)NC)C(c2ccc([N+](=O)[O-])cc2)C(C(=O)NCCCN2CCC(C(=O)OC)(c3ccccc3)CC2)=C(CCCCOC)N1 (stereo not drawn) [Example 174, 6-Ethyl-1,4-dihydro-2-(4-methoxybutyl)-3-{N-[3-(4-methoxycarbonyl-4-phenylpiperidin-1-yl)propyl]}carboxamido-5-(N-methyl)carboxamido-4-(4-nitrophenyl)pyridine]	–	–	–	1.91	0.955	3.98	–	–
CC(=O)C1=C(C)NC(CCCCN)=C(C(=O)NCCCN2CCC(c3ccccc3)(c3ccccc3)CC2)C1c1ccc([N+](=O)[O-])cc1 (stereo not drawn) [Example 176, 5-Acetyl-2-(4-aminobutyl)-1,4-dihydro-6-methyl-4-(4-nitrophenyl)-3-{N-[3-(4,4-diphenylpiperidin-1-yl)propyl]}carboxamidopyridine]	6.80	5.92	6.51	–	–	–	–	–
COC(=O)C1(c2ccccc2)CCN(CCCNC(=O)C2=C(CCCCN)NC(C)=C(C(N)=O)C2c2ccc([N+](=O)[O-])cc2)CC1 (stereo not drawn) [Example 177, 2-(4-Aminobutyl)-5-carboxamido-1,4-dihydro-3-{N-[3-(4-methoxycarbonyl-4-phenylpiperidin-1-yl)propyl]}carboxamido-6-methyl-4-(4-nitrophenyl)pyridine]	–	–	–	0.759	–	–	5.54	5.85
COC(=O)C1(c2ccccc2)CCN(CCCNC(=O)C2=C(CCCCN)NC(C)=C(C(C)=O)C2c2ccc([N+](=O)[O-])cc2)CC1 (stereo not drawn) [Example 178, 5-Acetyl-2-(4-aminobutyl)-1,4-dihydro-3-{N-[3-(4-methoxycarbonyl-4-phenylpiperidin-1-yl)propyl]}carboxamido-6-methyl-4-(4-nitrophenyl) pyridine]	–	–	–	0.417	0.759	0.832	–	–
CCC1=C(C(=O)NC)C(c2ccc([N+](=O)[O-])cc2)C(C(=O)NCCCN2CCC(C(=O)OC)(c3ccccc3)CC2)=C(CC)N1 (stereo not drawn) [Example 179, 2,6-Diethyl-1,4-dihydro-3-{N-[3-(4-methoxycarbonyl-4-phenyl-piperidin-1-yl)propyl]}carboxamido-5-(N-methyl)carboxamido-4-(4-nitrophenyl)pyridine]	–	–	–	1.07	–	–	5.73	5.38
CCNC(=O)C1=C(CC)NC(CC)=C(C(=O)NCCCN2CCC(C(=O)OC)(c3ccccc3)CC2)C1c1ccc([N+](=O)[O-])cc1 (stereo not drawn) [Example 180, 2,6-Diethyl-1,4-dihydro-5-(N-ethyl)carboxamido-3-{N-[3-(4-methoxycarbonyl-4-phenylpiperidin-1-yl)propyl]}carboxamido-4-(4-nitrophenyl)pyridine]	–	–	–	0.851	–	–	5.44	5.52
CCNC(=O)C1=C(CC)NC(CC)=C(C(=O)NCCCN2CCC(C(=O)OCC)(c3ccccc3)CC2)C1c1ccc([N+](=O)[O-])cc1 (stereo not drawn) [Example 182, 2,6-Diethyl-1,4-dihydro-3-{N-[3-(4-ethoxycarbonyl-4-phenylpiperidin-1-yl)propyl]}carboxamido-5-(N-ethyl)carboxamido-4(4-nitrophenyl)pyridine]	–	–	–	1.12	–	–	6.04	5.47
COC(=O)C1(c2ccccc2)CCN(CCCNC(=O)C2=C(COCCN=[N+]=[N-])NC(C)=C(C(N)=O)C2c2ccc([N+](=O)[O-])cc2)CC1 (stereo not drawn) [Example 183, 2-[(2-Azidoethoxy)methyl]-5-carboxamido-1,4-dihydro-3-{N-[3-(4-methoxycarbonyl-4-phenylpiperidin-1-yl)propyl]}carboxamido-6-methyl-4-(4-nitrophenyl)pyridine]	–	–	–	0.229	0.724	0.501	–	–
CCNC(=O)C1=C(CC)NC(COCCN)=C(C(=O)NCCCN2CCC(C(=O)OCC)(c3ccccc3)CC2)C1c1ccc([N+](=O)[O-])cc1 (stereo not drawn) [Example 192, 2-[(2-Aminoethoxy)methyl]-3-{N-[3-(4-ethoxycarbonyl-4-phenyl-piperidin-1-yl)propyl]}carboxamido-1,4-dihydro-6-ethyl-5-(N-ethyl)carboxamido-4-(4-nitrophenyl)pyridine]	–	–	–	1.86	6.17	3.02	–	–
CCOC(=O)C1(c2ccccc2)CCN(CCCNC(=O)C2=C(COCCN)NC(CC)=C(C(N)=O)C2c2ccc([N+](=O)[O-])cc2)CC1 (stereo not drawn) [Example 193, 2-[(2-Aminoethoxy)methyl]-5-carboxamido-3-{N-[3-(4-ethoxycarbonyl-4-phenylpiperidin-1-yl)propyl]}carboxamido-1,4-dihydro-6-ethyl-4-(4-nitrophenyl)pyridine]	–	–	–	1.74	2.4	2.88	–	–
CCOC(=O)C1(c2ccccc2)CCN(CCCNC(=O)C2=C(COCCN)NC(CC)=C(C(=O)NC)C2c2ccc([N+](=O)[O-])cc2)CC1 (stereo not drawn) [Example 194, 2-[(2-Aminoethoxy)methyl]-3-{N-[3-(4-ethoxycarbonyl-4-phenylpiperidin-1-yl)propyl]}carboxamido-1,4-dihydro-6-ethyl-5-(N-methyl) carboxamido-4-(4-nitrophenyl) pyridine]	–	–	–	2.69	5.75	4.9	–	–
CCOC(=O)C1(c2ccccc2)CCN(CCCNC(=O)C2=C(COCCN)NC(CC)=C(C(=O)O)C2c2ccc([N+](=O)[O-])cc2)CC1 (stereo not drawn) [Example 196, 2-[(2-Aminoethoxy)methyl]-3-{N-[3-(4-ethoxycarbonyl-4-phenylpiperidin-1-yl)propyl]}carboxamido-1,4-dihydro-6-ethyl-4-(4-nitrophenyl)pyridine-5-carboxylic Acid]	–	–	–	3.63	4.68	6.76	–	–
CCOC(=O)C1(c2ccccc2)CCN(CCCNC(=O)C2=C(COCCN)NC(CC)=C(C(=O)OC)C2c2ccc([N+](=O)[O-])cc2)CC1 (stereo not drawn) [Example 197, 2-[(2-Aminoethoxy)methyl]-3-{N-[3-(4-ethoxycarbonyl-4-phenylpiperidin-1-yl)propyl]}carboxamido-1,4-dihydro-6-ethyl-5-methoxycarbonyl-4-(4-nitrophenyl) pyridine]	–	–	–	0.148	–	–	5.63	6.60
CCC1=C(C(N)=O)C(c2ccc([N+](=O)[O-])cc2)C(C(=O)NCCCN2CCC(C(=O)OC)(c3ccccc3)CC2)=C(CC)N1 (stereo not drawn) [Example 200]	–	–	–	2	–	–	5.97	5.48
